The values below come from patent US12358915B2, “METTL3 inhibitory compounds” (STORM THERAPEUTICS LTD., priority 2019, dated 2025).

pIC50: −log10 of the molar value. Counter-ions that a name gives are not always drawn. Like-named read-outs stand apart in the source and are kept apart here.

The target of the experiment is T1, METTL3/14 (Homo sapiens, UniProt Q86U44).
T1 construct: The enzyme used was full-length his-tagged METTL3; His; made in house
In words: METTL3/14 methyltransferase assay (METTL3_14 RFMS, RapidFire mass spectrometry).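 Also: recombinant His-tagged METTL3 with FLAG-tagged METTL14 from baculovirus, SAH product quantified by mass spectrometry against isotope-labelled internal standards, 60 min at room temperature, scaled between no-RNA and DMSO-only wells.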 Type of experiment: biochemical.

The mark [1] stands for this setting: 5 nM METTL3/14, 0.2 μM RNA substrate, 0.5 μM SAM, lower limit of the assay IC50=5 nM, Compounds 1-62, read-out: METTL3_14 RFMS IC50.
The mark [2] stands for this setting: 5 nM METTL3/14, 0.2 μM RNA substrate, 0.5 μM SAM, lower limit of the assay IC50=5 nM, Compounds 63-265, read-out: METTL3_14 RFMS IC50.

T1 sequence (Q86U44 whole entry): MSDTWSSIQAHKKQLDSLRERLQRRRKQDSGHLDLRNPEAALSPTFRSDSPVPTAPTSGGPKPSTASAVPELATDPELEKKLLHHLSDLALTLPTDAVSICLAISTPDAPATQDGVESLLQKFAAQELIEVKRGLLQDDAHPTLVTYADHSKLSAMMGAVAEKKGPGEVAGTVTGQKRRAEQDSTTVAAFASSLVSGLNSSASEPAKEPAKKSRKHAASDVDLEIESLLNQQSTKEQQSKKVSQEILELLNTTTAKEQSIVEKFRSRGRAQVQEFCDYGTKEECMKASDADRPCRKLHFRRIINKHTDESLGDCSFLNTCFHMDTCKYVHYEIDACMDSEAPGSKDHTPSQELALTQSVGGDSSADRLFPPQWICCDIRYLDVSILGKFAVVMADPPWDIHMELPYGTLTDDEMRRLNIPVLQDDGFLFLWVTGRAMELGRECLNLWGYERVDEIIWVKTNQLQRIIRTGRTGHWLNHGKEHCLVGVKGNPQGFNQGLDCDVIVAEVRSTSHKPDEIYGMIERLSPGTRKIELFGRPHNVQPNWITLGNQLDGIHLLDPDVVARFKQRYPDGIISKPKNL
T1 sequence (Q9HCE5 whole entry partner): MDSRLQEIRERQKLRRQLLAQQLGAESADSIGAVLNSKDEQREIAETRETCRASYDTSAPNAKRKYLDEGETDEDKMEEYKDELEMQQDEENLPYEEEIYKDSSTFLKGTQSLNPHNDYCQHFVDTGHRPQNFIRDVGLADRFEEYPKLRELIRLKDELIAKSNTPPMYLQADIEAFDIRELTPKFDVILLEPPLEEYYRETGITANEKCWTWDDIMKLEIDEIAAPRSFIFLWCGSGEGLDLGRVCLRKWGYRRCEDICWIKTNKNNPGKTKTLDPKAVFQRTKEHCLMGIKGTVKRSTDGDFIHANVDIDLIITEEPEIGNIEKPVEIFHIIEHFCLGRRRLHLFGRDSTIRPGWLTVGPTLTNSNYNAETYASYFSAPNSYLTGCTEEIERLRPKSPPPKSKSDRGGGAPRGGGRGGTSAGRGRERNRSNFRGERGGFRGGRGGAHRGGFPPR

Broadly, the pIC50 is −log10 of the IC50, conventionally taken in molar units. For `CNCc1ccc2nc(CNC(=O)c3cccc4[nH]ncc34)cn2c1` [Compound 44, N-({6-[(methylamino)methyl]imidazo[1,2-a]pyridin-2-yl}methyl)-1H-indazole-4-carboxamide dihydrochloride], the pIC50 under setting [1] is 5.30.

In the case of `O=C(NCc1cn2cc(CNCCO)ccc2n1)c1cccc2[nH]ncc12` [Compound 45], under setting [1], the negative logarithm of the IC50 (pIC50) was 5.59. With `O=C(NCc1cn2cc(CNCC(F)(F)F)ccc2n1)c1cccc2[nH]ncc12` [Compound 46, N-[(6-{[(2,2,2-trifluoroethyl)amino]methyl}imidazo[1,2-a]pyridin-yl)methyl]-1H-indazole-4-carboxamide], the negative-log IC50 (pIC50) under setting [1] was 5.66. Still for that read-out and setting: for `CC(O)c1ccc2nc(CNC(=O)c3cccc4[nH]ncc34)cn2c1` (centres unmarked) [Compound 47, N-{[6-(1-hydroxyethyl)imidazo[1,2-a]pyridin-2-yl]methyl}-1H-indazole-4-carboxamide] the value was 5.40; for `O=C(NCc1cn2cc(C(O)c3ccccc3)ccc2n1)c1cccc2[nH]ncc12` (centres unmarked) [Compound 48, N-({6-[hydroxy(phenyl)methyl]imidazo [1,2-a]pyridin-2-yl}methyl)-1H-indazole-4-carboxamide], 5.69. Take `NCc1ccc2nc(CNC(=O)c3cc(=O)n4ccccc4n3)cn2c1` [Compound 50, N-{[6-(aminomethyl)imidazo[1,2-a]pyridin-2-yl]methyl}-4-oxo-4H-pyrido[1,2-a]pyrimidine-2-carboxamide]: the pIC50 under setting [1] was 6.57. For `O=C(NCc1cn2cc(CNCC(F)(F)F)ccc2n1)c1cc(=O)n2ccccc2n1` [Compound 51, 4-oxo-N-[(6-{[(2,2,2-trifluoroethyl)amino]methyl}imidazo[1,2-a]pyridin-2-yl)methyl]-4H-pyrido[1,2-a]pyrimidine-2-carboxamide], the pIC50 under setting [1] is 5.91. Still for that read-out and setting: in the case of `O=C(NCc1cn2cc(CNCCO)ccc2n1)c1cc(=O)n2ccccc2n1` [Compound 52, N-[(6-{[(2-hydroxyethyl)amino]methyl}imidazo[1,2-a]pyridin-2-yl)methyl]-4-oxo-4H-pyrido[1,2-a]pyrimidine-2-carboxamide] it was 6.57. For the molecule `O=C(NCc1cn2cc(CNCCc3ccccc3)ccc2n1)c1cc(=O)n2ccccc2n1` [Compound 53, 4-oxo-N-[(6-{[(2-phenylethyl)amino]methyl}imidazo[1,2-a]pyridin-2-yl)methyl]-4H-pyrido[1,2-a]pyrimidine-2-carboxamide], the pIC50 is, setting by setting: under setting [1], 7.42; (read-out: IC50) 7.57. As to `O=C(NCc1cn2cc(CNCc3ccccc3)ccc2n1)c1cc(=O)n2ccccc2n1` [Compound 54, N-({6-[(benzylamino)methyl]imidazo[1,2-a]pyridin-2-yl}methyl)-4-oxo-4H-pyrido[1,2-a]pyrimidine-2-carboxamide], for the setting “primary enzyme screen, inhibition of RNA methyltransferase activity, lower limit of the assay is IC50=5 nM, read-out: IC50”, the pIC50 is 7.80.

Consider `O=C(NCc1cn2cc(CNCCCc3ccccc3)ccc2n1)c1cc(=O)n2ccccc2n1` [Compound 55, 4-oxo-N-[(6-{[(3-phenylpropyl)amino]methyl}imidazo[1,2-a]pyridin-2-yl)methyl]-4H-pyrido[1,2-a]pyrimidine-2-carboxamide], for which the pIC50 under setting [1] was 7.06 and the pIC50 (read-out: IC50) was 7.18. Consider `O=C(NCc1cn2cc(C(O)c3ccccc3)ccc2n1)c1cc(=O)n2ccccc2n1` (centres unmarked) [Compound 56, N-({6-[hydroxy(phenyl)methyl]imidazo[1,2-a]pyridin-2-yl}methyl)-4-oxo-4H-pyrido[1,2-a]pyrimidine-2-carboxamide], for which, under setting [1], the pIC50 is 6.02. Turning to `CC(O)c1ccc2nc(CNC(=O)c3cc(=O)n4ccccc4n3)cn2c1` (centres unmarked) [Compound 57, N-{[6-(1-hydroxyethyl)imidazo[1,2-a]pyridin-2-yl]methyl}-oxo-4H-pyrido[1,2-a]pyrimidine-2-carboxamide], under setting [1], the pIC50 is 6.15. The same measure, in the same setting: in the case of `C=Cc1ccc2nc(CNC(=O)c3cc(=O)n4ccccc4n3)cn2c1` [Compound 58, N-({6-ethenylimidazo[1,2-a]pyridin-2-yl}methyl)-4-oxo-4H-pyrido[1,2-a]pyrimidine-2-carboxamide] it was 6.52; in that of `O=C(NCc1cn2cc(C3CC3)ccc2n1)c1cc(=O)n2ccccc2n1` [Compound 59, N-({6-cyclopropylimidazo[1,2-a]pyridin-2-yl}methyl)-4-oxo-4H-pyrido[1,2-a]pyrimidine-2-carboxamide], 6.03.

With `C=Cc1ccn2cc(CNC(=O)c3cc(=O)n4ccccc4n3)nc2c1` [Compound 60, N-({7-ethenylimidazo[1,2-a]pyridin-2-yl}methyl)-4-oxo-4H-pyrido[1,2-a]pyrimidine-2-carboxamide], under setting [1], the pIC50 is 6.15. Same read-out and setting: for `O=C(NCc1cn2cc(CO)ccc2n1)c1cc(=O)n2ccccc2n1` [Compound 61, N-{[6-(hydroxymethyl)imidazo[1,2-a]pyridin-2-yl]methyl}-4-oxo-4H-pyrido[1,2-a]pyrimidine-2-carboxamide] the value was 6.16. With `Cc1ccc2nc(Cc3nnc(-c4cccc5[nH]ncc45)o3)cn2c1` [Compound 62, 2-(1H-indazol-4-yl)-5-[(6-methylimidazo[1,2-a]pyridin-2-yl)methyl]-1,3,4-oxadiazole], under setting [1], the pIC50 is 5.06. In the case of `NCCc1ccc2nc(CNC(=O)c3cc(=O)n4ccccc4n3)cn2c1` [Compound 63, N-{[6-(2-aminoethyl)imidazo[1,2-a]pyridin-2-yl]methyl}-4-oxo-4H-pyrido[1,2-a]pyrimidine-2-carboxamide], the pIC50 under setting [2] is 6.52.

Take `Cc1ccc2nc(CNC(=O)c3cc(=O)n4c(n3)CCCC4)cn2c1` [Compound 64, N-({6-methylimidazo [1,2-a]pyridin-2-yl}methyl)-4-oxo-4H,6H,7H,8H, 9H-pyrido[1,2-a]pyrimidine-2-carboxamide]: under setting [2], the pIC50 is 5.14. The same measure, in the same setting: for `O=C(NCc1cn2cc(C(F)(F)F)ccc2n1)c1cc(=O)n2ccccc2n1` [Compound 65, 4-oxo-N-{[6-(trifluoromethyl)imidazo[1,2-a]pyridin-2-yl]methyl}-4H-pyrido[1,2-a]pyrimidine-2-carboxamide] the value was 5.18.

Regarding `Cc1ccc2nc(Cc3nnc(-c4cccc5[nH]ncc45)s3)cn2c1` [Compound 66, 4-[5-({6-methylimidazo[1,2-a]pyridin-2-yl}methyl)-1,3,4-thiadiazol-2-yl]-1H-indazole], the pIC50 under setting [2] was 5.87. On the same count and under the same terms, in the case of `CC(C)(C)OC(=O)NCCc1ccc2nc(CNC(=O)c3cc(=O)n4ccccc4n3)cn2c1` [Compound 67, tert-butyl N-(2-{2-[({4-oxo-4H-pyrido[1,2-a]pyrimidin-2-yl}formamido)methyl]imidazo [1,2-a]pyridin-6-yllethyl) carbamate] it was 5.09. On the same count and under the same terms, for `O=C(NCc1ccccc1)c1ccc2nc(CNC(=O)c3cc(=O)n4ccccc4n3)cn2c1` [Compound 68, N-benzyl-2-[({4-oxo-4H-pyrido[1,2-a]pyrimidin-2-yl}formamido)methyl]imidazo [1,2-a]pyridine-6-carboxamide] the value was 5.29; for `Cc1ccc2nc(Cn3cc(-c4cccc5[nH]ncc45)nn3)cn2c1` [Compound 69, 4-[1-({6-methylimidazo[1,2-a]pyridin-2-yl}methyl)-1H-1,2,3-triazol-4-yl]-1H-indazole], 5.87; for `O=C(NCc1cn2cc(CNCc3cccnc3)ccc2n1)c1cc(=O)n2ccccc2n1` [Compound 70, 4-oxo-N-{[6-({[(pyridin-3-yl)methyl]amino}methyl)imidazo [1,2-a]pyridin-2-yl]methyl}-4H-pyrido[1,2-a]pyrimidine-2-carboxamide], 6.84. For `COc1ccc(CNCc2ccc3nc(CNC(=O)c4cc(=O)n5ccccc5n4)cn3c2)cc1` [Compound 71, N-{[6-({[(4-methoxyphenyl)methyl]amino}methyl)imidazo [1,2-a]pyridin-2-yl]methyl}-4-oxo-4H-pyrido [1,2-a]pyrimidine-2-carboxamide], the pIC50 under setting [2] was 6.69.

For `O=C(NCc1cn2cc(CNCc3ccc(Cl)cc3)ccc2n1)c1cc(=O)n2ccccc2n1` [Compound 73, N-{[6-({[(4-chlorophenyl)methyl]amino}methyl)imidazo [1,2-a]pyridin-2-yl]methyl}-4-oxo-4H-pyrido [1,2-a]pyrimidine-2-carboxamide], the pIC50 (read-out: METTL3_14 RFMS IC50) was 7.19. Take `C[C@@H](NCc1ccc2nc(CNC(=O)c3cc(=O)n4ccccc4n3)cn2c1)c1ccccc1` [Compound 75, 4-oxo-N-{[6-({[(1R)-1-phenylethyl]amino}methyl)imidazo[1,2-a]pyridin-2-yl]methyl}-4H-pyrido[1,2-a]pyrimidine-2-carboxamide]: under setting [2], the pIC50 is 7.32. Still for that read-out and setting: in the case of `C[C@H](NCc1ccc2nc(CNC(=O)c3cc(=O)n4ccccc4n3)cn2c1)c1ccccc1` [Compound 76, 4-oxo-N-{[6-({[(1S)-1-phenylethyl]amino}methyl)imidazo [1,2-a]pyridin-2-yl]methyl}-4H-pyrido[1,2-a] pyrimidine-2-carboxamide] it was 7.52; in that of `O=C(NCc1cn2cc(CNCc3ccccc3F)ccc2n1)c1cc(=O)n2ccccc2n1` [Compound 77, N-{[6-({[(2-fluorophenyl)methyl]amino}methyl)imidazo [1,2-a]pyridin-2-yl]methyl}-4-oxo-4H-pyrido[1,2-a]pyrimidine-2-carboxamide], 7.08; in that of `O=C(NCc1cn2cc(CNCc3cccc(F)c3)ccc2n1)c1cc(=O)n2ccccc2n1` [Compound 79, N-{[6-({[(3-fluorophenyl)methyl]amino}methyl)imidazo[1,2-a]pyridin-2-yl]methyl}-4-oxo-4H-pyrido [1,2-a]pyrimidine-2-carboxamide], 7.20. Same read-out and setting: in the case of `O=C(NCc1cn2cc(CNCc3ccc(F)cc3)ccc2n1)c1cc(=O)n2ccccc2n1` [Compound 80, N-{[6-({[(4-fluorophenyl)methyl]amino}methyl)imidazo [1,2-a]pyridin-2-yl]methyl}-4-oxo-4H-pyrido[1,2-a]pyrimidine-2-carboxamide] it was 7.78.
